Assay [1] has as its system cor123/cpr cell line. As to the kind of experiment: Growth inhibition assay (modified MTT). It counts as cell-based, human. The following applies: Table 1, first series of assays, five-day MTT. How it is done:
(§1) The sensitivities of the cell lines to cisplatinum, carboplatinum, and compounds A-F were determined using a growth inhibition assay which was a modified version of the MTT method (modified version of MTT method described in Appendix B).
(§2) The following is a brief description of the eleven different cell lines used in the growth inhibition assay: • The A2780 cell line (1 in FIGS. 1-9) is a human ovarian cell line which is sensitive to cisplatinum and carboplatinum. […] The cor123/cpr (7) cell line is a modified version of the cor123 cell line which has been modified to be resistant to cisplatinum and carboplatinum. • The ccu24 (8) cell line is an epithelial ovarian cancer cell line, developed at the Christie Hospital from a tumour biopsy, and the ccu24/cpr (9) cell line is a modified version of this cell line which is cisplatinum and carboplatinum resistant. • L1210 (10) is a murine leukemia cell line and L1210/M1140 (11) is its platinum drug resistant subline.
(§3) The cell toxicity studies were performed using a modification of the method MTT.^7 The principle of the assay is to assess the growth inhibitory effect of a drug at various doses over a five-day time course. This assay was performed in 96-well microtitre plates. Cells were seeded at densities of 400-1,000 cells per well, depending on the doubling time of the cell line. All cell dilutions were performed in growth medium containing 10% FCS (foetal calf serum).
(§4) Compounds under investigation were dissolved in DMSO (dimethylsulphoxide). Serial dilutions of compound were made into the cell suspension, ensuring that the proportion of DMSO remained below 0.5%. 200 μl of cells and drug mix was added to the 96-well plates in triplicate. The plates were incubated for five days at 5% CO2 and 37° C. After this time, the plates were removed from the incubator and 50 μl of a 3 mg/ml solution of MTT [3-(4,5-dimethyl-thiazol-2-yl)-2,5-diphenyl tetrazolium bromide] was added to each well and incubated in the same conditions for another 3 hours. The medium from each well was aspirated and the formazan crystals were solubilised in 200 μl of DMSO. The plates were read using a Multiskan platereader at 540 nm and 690 nm. Growth inhibition curves were constructed using mean and standard deviation of the triplicate absorbance values and from these curves the IC50 values were calculated.

Assay [2] relates to ccu24/cpr cell line. As to the kind of experiment: Growth inhibition assay (modified MTT). It counts as cell-based, human. To be noted: Table 1, first series of assays, five-day MTT. The procedure:
as §1, §2, §3, §4

For assay [3], the system named is cor123 cell line. As to the kind of experiment: Growth inhibition assay (modified MTT). It counts as cell-based, human. The following applies: Table 1, first series of assays, five-day MTT. How it is done:
as §1, §2, §3, §4

Assay [4] deals with A2780carb cell line. Briefly: Growth inhibition assay (modified MTT). It counts as cell-based, human. To be noted: Table 1, first series of assays; A2780carb; five-day MTT. The procedure:
as §1, §2, §3, §4

Assay [5] has as its system mcp8 cell line. As to the kind of experiment: Growth inhibition assay (modified MTT). To be noted: Table 1, first series of assays; mcp8; five-day MTT. It counts as cell-based, human. The procedure:
as §1, §2, §3, §4

In assay [6] the test system is A2780-S cell line. Briefly: Growth inhibition assay (modified MTT). It counts as cell-based, human. To be noted: Table 1, first series of assays, five-day MTT. The procedure:
as §1, §2, §3, §4

For assay [7], the system named is ccu24 cell line. Briefly: Growth inhibition assay (modified MTT). To be noted: Table 1, first series of assays, five-day MTT. It counts as cell-based, human. How it is done: as §1, §2, §3, §4
For assay [8], the system named is mcp1 cell line. Briefly: Growth inhibition assay (modified MTT). It counts as cell-based, human. To be noted: Table 1, first series of assays; mcp1; five-day MTT. How it is done:
as §1, §2, §3, §4

Assay [9] has as its system A2780cis cell line. As to the kind of experiment: Growth inhibition assay (modified MTT). It counts as cell-based, human. To be noted: Table 1, first series of assays; A2780cis; five-day MTT. How it is done:
as §1, §2, §3, §4

The subject of assay [10] is L1210. As to the kind of experiment: Comet assay, DNA crosslinking. It counts as cell-based, murine. To be noted: ratio >1 = more cross-linking in parental than in platinum-resistant line. How it is done: (§5) Preliminary studies have been carried out to investigate the mechanism underlying this increased sensitivity. These studies were carried out using the Comet assay (described in Appendix C), which measures damage to DNA. The results are shown in FIGS. 1 (cisplatinum), 2 (carboplatinum), 3 to 8 (compounds A-F) and 9 (phenylgoldtriphenylphospine, PAuP).
(§6) Table 3 illustrates the results of the following calculation using the DNA cross-linking results obtained in the Comet assays:
(§7) DNA damage was measured by the single cell gel electrophoresis (SCGE) assay or “Comet assay”, originally developed by Ostling and Johnson^8. This is a method for determining the extent of DNA damage and repair capacity within individual cells.^9-11 It has previously been shown that this technique can be used to investigate the mechanism of action of different DNA damaging agents.^12
(§8) Cells were trypsinised, suspended in 0.5 ml of ice cold fresh medium and transferred into plastic 24-well dishes prior to embedding in agarose. For the cross-linking studies treated and control samples were chilled on ice (to prevent any repair of DNA damage) and irradiated to a dose of 20 Gy in a Caesium-137 source (0.4 Gy/min). Control, (unirradiated, non-drug treated cells) were maintained on ice in the same manner as treated samples.
(§9) Glass microscope slides, frosted at one end, were pre-coated with 1% normal agarose in distilled water. These slides were allowed to air dry overnight prior to use. A 1% low melting point agarose (LMP) mixture in PBS was melted and held at 45° C. 1 ml of LMP was then added to 0.5 ml of cell suspension on ice and the resultant mixture was pipetted onto a pre-coated glass microscope slide and allowed to set for 1-2 minutes before being transferred to an ice tray. The slides were immersed in ice cold lysis solution (100 mM EDTA, 10 mM Tris-HCl, 1% Triton ×100, 1% DMSO, 2.5M NaCl) for 1 hr, and washed three times by immersion in fresh double distilled water for 15 minutes.
(§10) Slides were then placed onto a flat bed electrophoresis tank and covered (5-6 mm) with alkali unwinding solution (50 mM NaOH, 1 mM EDTA buffered to pH 12.5) and left under subdued lighting for 45 minutes to allow the DNA to unwind before being subjected to electrophoresis at 0.6V/cm for 25 minutes. Each slide was rinsed with 2×1 ml of 0.4M Tris-HCl, pH 8.0 and allowed to dry in air. The dried slides were then rehydrated for 20 minutes with double distilled water, 2×1 ml of propidium iodide solution (2.5 μg/ml) was added and staining was allowed to proceed for 15 minutes. Slides were then immersed in 1 litre of double distilled water for 1 hour to reduce excess background staining. The slides were cover slipped and then examined at 250× magnification under an epifluorescent microscope (Zeiss-Jenamed) using green light from a 50 watt mercury source with a 580 nm reflector and a 590 nm barrier filter set. Images were captured using an attached Sony HAD-1 interline CCD camera and Komet software analysis package (Kinetic Imaging). Twenty-five images from each of two duplicate slides were captured and analysed and the individual “comet moments” as defined by Olive et al^13, were calculated. The total fluorescence of the image represents the amount of DNA present and the length of the image, measured in pixels, represents the length of migration of the DNA. The head and tail areas of the image were identified and the intensity of each was determined. The tail moment is calculated by multiplying the fraction of DNA present in the tail by half the length of the tail.

In assay [11] the test system is parental and platinum-resistant cell lines. Briefly: Comet assay, DNA cross-linking, summary of FIGS. 1-9. It counts as cell-based. The procedure:
as §5, §7, §8, §9, §10

For assay [12], the system named is A2780mcp1. As to the kind of experiment: Comet assay, DNA crosslinking. It counts as cell-based, human. The following applies: ratio >1 = more cross-linking in parental than in platinum-resistant line. The procedure:
as §5, §6, §7, §8, §9, §10

For assay [13], the system named is ccu24. As to the kind of experiment: Comet assay, DNA crosslinking. It counts as cell-based, human. The following applies: ratio >1 = more cross-linking in parental than in platinum-resistant line. The procedure:
as §5, §6, §7, §8, §9, §10

Assay [14] concerns A2780cis. Briefly: Comet assay, DNA crosslinking. It counts as cell-based, human. To be noted: ratio >1 = more cross-linking in parental than in platinum-resistant line. How it is done:
as §5, §6, §7, §8, §9, §10

Assay [15] concerns A2780/mcp8. Briefly: Comet assay, DNA crosslinking. It counts as cell-based, human. The following applies: ratio >1 = more cross-linking in parental than in platinum-resistant line. The procedure:
as §5, §6, §7, §8, §9, §10

For assay [16], the system named is cor123. Briefly: Comet assay, DNA crosslinking. It counts as cell-based, human. The following applies: ratio >1 = more cross-linking in parental than in platinum-resistant line. The procedure: as §5, §6, §7, §8, §9, §10
The subject of assay [17] is L1210 cell line. Briefly: Growth inhibition assay (modified MTT). It counts as cell-based, murine. To be noted: Table 1, first series of assays, five-day MTT. How it is done: as §1, §2, §3, §4
Assay [18] relates to L1210/M1140 cell line. Briefly: Growth inhibition assay (modified MTT). It counts as cell-based, murine. The following applies: Table 1, first series of assays, five-day MTT. The procedure: as §1, §2, §3, §4
In assay [19] the test system is eleven cell lines. Briefly: Growth inhibition assay (modified MTT), summary over cell lines. It counts as cell-based, mouse and human. The following applies: text reference to Table 1; cell line not stated. How it is done:
as §1
as §2, with “subline. […]” for “subline.”
Compounds under investigation were dissolved in DMSO (dimethylsulphoxide). […] The plates were read using a Multiskan platereader at 540 nm and 690 nm. Growth inhibition curves were constructed using mean and standard deviation of the triplicate absorbance values and from these curves the IC50 values were calculated.

The subject of assay [20] is A2780carb. Briefly: Comet assay, DNA crosslinking. It counts as cell-based, human. The following applies: ratio >1 = more cross-linking in parental than in platinum-resistant line. How it is done: as §5, §6, §7, §8, §9, §10

Usually IC50 stands for the concentration that gives 50% inhibition. Read a low IC50 as higher potency.

A value given as a limit tells only on which side of the number the result lay.

As to `N.N.[Cl][Pt][Cl]` [Cisplatin, cisplatin, reference compound], the IC50 is 26.7 µM in assay [1]; 24.9 µM in [2]; 3.43 µM in assay [3]; 27.6 µM in assay [4]; 24.4 µM in [5]; 1.32 µM in assay [6]. For the same compound, the IC50 amounted to 4.32 µM in assay [7]; 19.9 µM in [8]; 30.5 µM in [9]; 12.1 µM in assay [17]; 44.9 µM in [18]. Moreover, the “DNA crosslinking (Comet) ratio” value in [10] is recorded as 3.37; in [12], 5.40; in assay [13], 4.65; in assay [14] it was 5.65; in assay [15], 5.70; in [16], 5.72. Further, the “DNA cross-linking in parental cell lines” value in assay [11] (parental (platinum-sensitive) A2780, L1210 and cor123 cell lines, FIGS. 1 and 2) is reported as “extensive DNA cross-linking”. In assay [11] (platinum-resistant cell lines, FIGS. 1 and 2), the “DNA cross-linking in platinum-resistant cell lines” value was “much less cross-linking”. In addition, the “DNA crosslinking (Comet) ratio, all resistant cell lines” value in assay [11] (summary of Table 3) is listed as “a ratio greater than unity”.
On to `[Au+].[c-]1ccccc1.c1ccc([PH+](c2ccccc2)c2ccccc2)cc1` [PAuP, phenylgoldtriphenylphospine, reference compound], for which the “ID50 (cytotoxicity)” value in assay [19] is given as greater than 10000 mu. In addition, the IC50 in [6] and in assay [9] was greater than 10 µM in each case. In addition, the “DNA crosslinking (Comet) ratio” value in assay [10] was 1.33; in assay [12], 1.33; in [13] it was 1.00; in assay [14] it was 1.00; in [15], 1.33; in [20] it was 1.33. The “DNA crosslinking (Comet) ratio” value in assay [16] is 0.75. Further, the level of cross-linking entry in [11] (FIG. 9, compared to the di-gold compounds) is reported as “low compared to the di-gold compounds”.

Values taken from patent publication US7732485B2, “Treatment of cancer” (The University of Manchester, priority 2003, dated 2010).
